B1: OT-RLuc-004: ecDHFR (R12Y, Y100I); linker (SG); Renilla Luc; SEQ ID NO 213375 (protein)
chain: MISLIAALAVDYVIGMENAMPWNLPADLAWFKRNTLNKPVIMGRHTWESIGRPLPGRKNIILSSQPGTDDRVTWVKSVDEAIAACGDVPEIMVIGGGRVIEQFLPKAQKLYLTHIDAEVEGDTHFPDYEPDDWESVFSEFHDADAQNSHSYCFEILERRSGTSKVYDPEQRKRMITGPQWWARCKQMNVLDSFINYYDSEKHAENAVIFLHGNAASSYLWRHVVPHIEPVARCIIPDLIGMGKSGKSGNGSYRLLDHYKYLTAWFELLNLPKKIIFVGHDWGACLAFHYSYEHQDKIKAIVHAESVVDVIESWDEWPDIEEDIALIKSEEGEKMVLENNFFVETMLPSKIMRKLEPEEFAAYLEPFKEKGEVRRPTLSWPREIPLVKGGKPDVVQIVRNYNAYLRASDDLPKMFIESDPGFFSNAIVEGAKKFPNTEFVKVKGLHFSQEDAPDEMGKYIKSFVERVLKNEQ
B2: OT-RLuc-001: Renilla Luc (constitutive); SEQ ID NO 213372 (protein)
chain: MTSKVYDPEQRKRMITGPQWWARCKQMNVLDSFINYYDSEKHAENAVIFLHGNAASSYLWRHVVPHIEPVARCIIPDLIGMGKSGKSGNGSYRLLDHYKYLTAWFELLNLPKKIIFVGHDWGACLAFHYSYEHQDKIKAIVHAESVVDVIESWDEWPDIEEDIALIKSEEGEKMVLENNFFVETMLPSKIMRKLEPEEFAAYLEPFKEKGEVRRPTLSWPREIPLVKGGKPDVVQIVRNYNAYLRASDDLPKMFIESDPGFFSNAIVEGAKKFPNTEFVKVKGLHFSQEDAPDEMGKYIKSFVERVLKNEQ
B3: OT-RLuc-006: Renilla Luc; linker (SG); ecDHFR (R12Y, Y100I); SEQ ID NO 213377 (protein)
chain: MTSKVYDPEQRKRMITGPQWWARCKQMNVLDSFINYYDSEKHAENAVIFLHGNAASSYLWRHVVPHIEPVARCIIPDLIGMGKSGKSGNGSYRLLDHYKYLTAWFELLNLPKKIIFVGHDWGACLAFHYSYEHQDKIKAIVHAESVVDVIESWDEWPDIEEDIALIKSEEGEKMVLENNFFVETMLPSKIMRKLEPEEFAAYLEPFKEKGEVRRPTLSWPREIPLVKGGKPDVVQIVRNYNAYLRASDDLPKMFIESDPGFFSNAIVEGAKKFPNTEFVKVKGLHFSQEDAPDEMGKYIKSFVERVLKNEQSGISLIAALAVDYVIGMENAMPWNLPADLAWFKRNTLNKPVIMGRHTWESIGRPLPGRKNIILSSQPGTDDRVTWVKSVDEAIAACGDVPEIMVIGGGRVIEQFLPKAQKLYLTHIDAEVEGDTHFPDYEPDDWESVFSEFHDADAQNSHSYCFEILERR
B4: OT-RLuc-005: Renilla Luc; linker (SG); FKBP (E31G, F36V, R71G, K105E); SEQ ID NO 213376 (protein)
chain: MTSKVYDPEQRKRMITGPQWWARCKQMNVLDSFINYYDSEKHAENAVIFLHGNAASSYLWRHVVPHIEPVARCIIPDLIGMGKSGKSGNGSYRLLDHYKYLTAWFELLNLPKKIIFVGHDWGACLAFHYSYEHQDKIKAIVHAESVVDVIESWDEWPDIEEDIALIKSEEGEKMVLENNFFVETMLPSKIMRKLEPEEFAAYLEPFKEKGEVRRPTLSWPREIPLVKGGKPDVVQIVRNYNAYLRASDDLPKMFIESDPGFFSNAIVEGAKKFPNTEFVKVKGLHFSQEDAPDEMGKYIKSFVERVLKNEQSGGVQVETISPGDGRTFPKRGQTCVVHYTGMLGDGKKVDSSRDRNKPFKFMLGKQEVIRGWEEGVAQMSVGQGAKLTISPDYAYGATGHPGIIPPHATLVFDVELLELE

Columns and labels:
HEK-Blue sensor cells = test: HEK-Blue sensor cell assay for functional IL12 (Quanti-Blue); type: cell-based; details: HEK 293T transfected with 200 ng plasmid, 10 μM Shield-1 24 hours; media on HEK Blue sensor cells; FIG. 21A
Protocol: HEK-Blue sensor cells (InvivoGen, San Diego, Calif.) were utilized to evaluate whether DD regulated IL12 is capable of regulating signaling downstream of IL12. In these cells, the IL12 receptor, STAT4 and downstream transcriptional elements are tied to a reporter gene such that IL12 signaling can be monitored. To evaluate production of functional IL12, one million HEK 293T were transfected with 200 ng of OT-IL-12-003 plasmid using Lipofectamine 2000 (Thermo Fisher Scientific, Waltham, Mass.). 48 hours after transfection, cells were treated with growth media containing 10 μM Shield-1, incubated for another 24 hours, following which, media was collected. […] After overnight incubation, 20 μl media was removed from each well and incubated with 180 μl Quanti-Blue reagent (InvivoGen, San Diego, Calif.) for 30 minutes at 37° C. Absorption was measured at 620 nm using a spectrophotometer. […] Functional IL12 concentrations were determined by comparing the optical density of each sample with IL12 standard curve.
The dependence of functional IL12 production on the dose of Shield-1 used was also evaluated. […] Absorption was measured at 620 nm using a spectrophotometer. […] Functional IL12 concentrations were determined by comparing the optical density of each sample with IL12 standard curve.

HCT-116 cells [1] = test: Luciferase expression by western blotting; type: cell-based; details: HCT-116 stably transduced; 1 μM Shield-1 or 10 μM Trimethoprim or vehicle, 24 hours; FIG. 22A
Protocol: DD regulated luciferase can be used to track cells in vivo e.g. T cells. Firefly luciferase or Renilla luciferase may be utilized as the payload. HCT-116 cells were stably transduced with the constitutive (OT-RLuc-001) or DD regulated constructs (OT-RLuc-002, OT-RLuc-003, OT-RLuc-004, OT-RLuc-005 and OT-RLuc-006). Cells were treated with 1 μM Shield-1, or 10 μM Trimethoprim or vehicle control for 24 hours and luciferase expression and activity was measured. Luciferase expression was measured via western blotting using Anti-Renilla luciferase and anti-Firefly luciferase antibodies (Abcam, Cambridge, UK). Blots were also probed with anti-GAPDH antibody to ensure even protein loading in all samples.

HCT116 cells = test: IL2 ELISA, dependence of DD-IL2 levels on Shield-1 dose; type: cell-based; details: 96-well plate, varying concentrations of Shield-1, DD-IL2 construct, read-out: ECK of Shield-1 (IL2 levels by IL2 ELISA)
From the text: FKBP (L106P) and ecDHFR (R12Y, Y100I) are well-characterized destabilizing domains which can confer instability to fusion partners (e.g., a POI). The instability is reversed by a synthetic ligand named Shield-1 that binds to FKBP; TMP that binds to DHFR. An IL2 polypeptide was linked to either FKBP (L106P) or ecDHFR (R12Y, Y100I). IL2 constructs were cloned into pLVX-IRES-Puro lentiviral vectors. An IL2 signal sequence was inserted at the N terminus of the construct.
To evaluate dependence of IL2 levels on Shield-1 dose, HCT116 cells were plated onto a 96-well plate and treated with varying concentrations of Shield-1. Media was then collected from cells and IL2 levels were quantified using IL2 ELISA (FIG. 20). IL2 increased with increase in Shield-1 concentration and plateaued at higher Shield-1 dose levels. The ECK of Shield-1 was determined to be 50 nM

HEK293T cells = test: IL12-p40 ELISA, Shield-1 dose and cell number dependent IL12 induction; type: cell-based, human; details: OT-IL12-004 transduced HEK293T cells, 24 hours
Protocol: Following overnight incubation, cells were treated with growth medium containing 0 to 10 μM Shield-1 for 24 hours. Media was then collected, diluted 400 fold and FKBP-IL12 levels were measured using IL12-p40 ELISA.

HCT-116 cells [2] = test: Luciferase activity, luminescence reading; type: cell-based; details: 1 μM Shield-1 or 10 μM Trimethoprim or vehicle, 24 hours; coelentrazine or luciferin substrate; FIG. 22B
Protocol: Ligand dependent activity of Renilla and firefly luciferase constructs was also measured in using coelentrazine and luciferin substrates respectively. Cells were treated with 1 μM Shield-1, or 10 μM Trimethoprim or vehicle control for 24 hours, lysed with assay lysis buffer and incubated with the luciferase substrate. Luciferase activity was measured as luminescence reading using a luminometer and the values were compared to control comprising of lysis buffer and substrate.

Row | Molecule | Luciferase expression, ligand dependent stabilization (western blotting) (HCT-116 cells [1]) | further results
1 | OT-IL12-003: p40 signal sequence; FKBP (F36V, L106P); furin (SARNRQKRS); p40; linker ((G4S)3); p35; SEQ ID NO 213301 | – | Media dilution at which measurable levels of functional IL12 were reached (HEK-Blue sensor cells): 640 fold
2 | OT-RLuc-003: FKBP (F36V, 106P); linker (SG); Renilla Luc; SEQ ID NO 213374 | strong Shield-1 dependent stabilization | –
3 | OT-FLuc-002: FKBP (F36V, 106P); linker (EF); Fluc; SEQ ID NO 213373 | modest stabilization | –
4 | CC[C@H](C(=O)N1CCCC[C@H]1C(=O)O[C@H](CCc1ccc(OC)c(OC)c1)c1cccc(OCCN2CCOCC2)c1)c1cc(OC)c(OC)c(OC)c1 [Shield-1] | – | EC50 (HCT116 cells): 50 nM; Shield-1 dose up to which IL12 induction increased, then plateaued (HEK293T cells): 1 µM
5 | B1 | modest stabilization | –
6 | B2 | expression of Renilla luciferase both in the presence and absence of ligand | Luciferase activity (luminescence reading) (HCT-116 cells [2]): high luciferase activity both in the presence and absence of ligand
7 | B3 | modest stabilization | –
8 | B4 | modest stabilization | –

— US11446398B2, “Regulated biocircuit systems” (Obsidian Therapeutics, Inc., priority 2016, dated 2022)
